The record followed here is patent publication US12552802B2, “Fused [7,5] bicyclic pyrazole derivatives and methods of use thereof for the treatment of herpesviruses” (Merck Sharp & Dohme LLC, priority 2020, dated 2026).

Assay [1] deals with T1, Human cytomegalovirus (HCMV) DNA polymerase (Human cytomegalovirus, UniProt P08546).
T1 construct: made in house; host or cells: SF21 insect cells (baculovirus vector)
Briefly: HCMV polymerase assay. The assay is classed as biochemical. The following applies: polymerase 0.2 nM, AlphaLISA detection; read-out: CMV (IC50). On the procedure: (§1) Human cytomegalovirus (HCMV) and varicella zoster virus (VZV) DNA polymerases were expressed via baculovirus vector in SF21 cells and purified. Heterodimeric nucleic acid substrate used in the herpesvirus polymerase reactions was generated by annealing a 59-mer template to a 17-mer digoxigenin-labeled primer. Polymerase (HCMV final concentration of 0.2 nM; VZV final concentration of 0.4 nM) was combined with an inhibitor compound or DMSO in assay buffer (10 mM HEPES, pH 7.5, 25 mM KCl, 25 mM NaCl, 5 mM MgCl2, 5% glycerol, 0.67 mg/ml bovine serum albuminutes (albuminate?), and 1 mM tris(2-carboxyethyl)phosphine), and this mixture was pre-incubated for 30 minutes at room temperature in 384-well microtiter plates. The polymerization reaction was initiated by the addition of template/primer substrate (final concentration: 1.6 nM), and dNTPs (final concentration: 24 nM dCTP, 24 nMdGTP, 16 nM dATP, 16 nM dTTP, and 0.8 nM biotin-dUTP). After 60 minutes incubation at 37° C., reactions were terminated with quench buffer (25 mM HEPES pH 7.5, 100 mM NaCl, 0.25% Tween-20, 12 mM EDTA, and 1 mg/ml bovine serum albumin). Incorporation of biotinylated UTP was detected with 2.5-5 ug/ml anti-DIG AlphaLISA acceptor beads and 5-10 ug/ml streptavidin AlphaLISA donor beads (Perkin Elmer). Compound effects were normalized to the window defined by the controls (DMSO only and pre-quenched wells), and were fit using a 4-parameter algorithm to report an IC50.

Assay [2] has as its target T2, varicella zoster virus (VZV) DNA polymerase (Varicella-zoster virus, UniProt P09252).
T2 construct: made in house; host or cells: SF21 insect cells (baculovirus vector)
The experiment in a line: VZV polymerase assay. The assay is classed as biochemical. The following applies: polymerase 0.4 nM, AlphaLISA detection. The procedure: as §1

Assay [3] deals with HCMV Strain AD169. The experiment in a line: Viral qPCR assay, CMV in MRC5 cells. The assay is classed as cell-based, Human cytomegalovirus. The following applies: Human betaherpesvirus 5, AD169, ~72 hrs, viral genome copies by qPCR, read-out: CMV MRC5 Cell (EC50). On the procedure:
(§2) MRC5 cells, Vero cells, and MeWo cells were obtained from ATCC and were maintained at 37° C./5% CO2/90% relative humidity in Minimal Essential Medium with 10% fetal bovine serum, […] L-glutamine, 100 units/ml penicillin and 100 ug/ml streptomycin. Assay plates were prepared by dispensing compounds dissolved in DMSO into wells of 384 well collagen-coated plates using an ECHO acoustic dispenser. Each compound was tested in a 10-point, serial 3-fold dilution. Controls included uninfected cells and infected cells treated only with DMSO. Assays were initiated by mixing selected cells, in suspension, with virus, and dispensing 50 μl/well infected cells to pre-plated compounds. Plates were incubated at 37° C./5% CO2/90% relative humidity for ˜72 hrs to permit genomic replication, and infected cells were lysed by the addition of an equal volume of lysis buffer (10 mM Tris-HCl, pH8, 50 mM KCl, 2 mM MgCl2, 0.45% NP-40, 0.45% Tween-20, and 100 μg/ml proteinase K). […] Levels of a viral gene and of the cellular control, PPIA (Thermo Fisher Assay ID=Hs04194521_s1), were measured in separate 10 μL qPCR assays using TaqMang Gene Expression Master Mix (Applied Biosystems), and an 7900HT Fast Real-Time PCR System with 384-Well Block Module. 7-point, serial 10-fold dilutions of a plasmid standard were run on each plate to generate a standard curve, and genome copies numbers were calculated by plotting experimental Ct onto linear regression of the standard curve. […] Calculated % effects were fit using a 4-parameter algorithm, and EC50 was reported.
(§3) MRC5 cells, Vero cells, and MeWo cells were obtained from ATCC and were maintained at 37° C./5% CO2/90% relative humidity in Minimal Essential Medium with 10% fetal bovine serum, […] L-glutamine, 100 units/ml penicillin and 100 ug/ml streptomycin. […] Levels of a viral gene were measured in 10 μL qPCR assays using TaqMang Gene Expression Master Mix (Applied Biosystems), and an 7900HT Fast Real-Time PCR System with 384-Well Block Module. […]

The test system of assay [4] is VZV. Briefly: Viral qPCR assay, VZV in MeWo cells. It is filed as cell-based, varicella zoster virus. Conditions: Human alphaherpesvirus 3, ~72 hrs, viral genome copies by qPCR, read-out: VZV MEWO Cell (IC50). On the procedure:
as §2, §3
(Quantitative PCR measures a nucleic acid by following its amplification.)

The test system of assay [5] is HSV-1 Strain F. The experiment in a line: Viral qPCR assay, HSV1 in Vero cells. It is filed as cell-based. Conditions: Human alphaherpesvirus 1, ~72 hrs, viral genome copies by qPCR, read-out: HSV1 VERO Cell (EC50). On the procedure: as §2, §3
Assay [6] relates to HSV2. Briefly: Viral qPCR assay, HSV2 in Vero cells. The assay is classed as cell-based. The following applies: Human alphaherpesvirus 2, ~72 hrs, viral genome copies by qPCR, read-out: HSV2 VERO Cell (EC50). On the procedure:
as §2, §3

A word on the IC50: it is the concentration that gives 50% inhibition. For orientation: EC50 means the concentration at which the effect is half-maximal.

T1 sequence (P08546 whole entry): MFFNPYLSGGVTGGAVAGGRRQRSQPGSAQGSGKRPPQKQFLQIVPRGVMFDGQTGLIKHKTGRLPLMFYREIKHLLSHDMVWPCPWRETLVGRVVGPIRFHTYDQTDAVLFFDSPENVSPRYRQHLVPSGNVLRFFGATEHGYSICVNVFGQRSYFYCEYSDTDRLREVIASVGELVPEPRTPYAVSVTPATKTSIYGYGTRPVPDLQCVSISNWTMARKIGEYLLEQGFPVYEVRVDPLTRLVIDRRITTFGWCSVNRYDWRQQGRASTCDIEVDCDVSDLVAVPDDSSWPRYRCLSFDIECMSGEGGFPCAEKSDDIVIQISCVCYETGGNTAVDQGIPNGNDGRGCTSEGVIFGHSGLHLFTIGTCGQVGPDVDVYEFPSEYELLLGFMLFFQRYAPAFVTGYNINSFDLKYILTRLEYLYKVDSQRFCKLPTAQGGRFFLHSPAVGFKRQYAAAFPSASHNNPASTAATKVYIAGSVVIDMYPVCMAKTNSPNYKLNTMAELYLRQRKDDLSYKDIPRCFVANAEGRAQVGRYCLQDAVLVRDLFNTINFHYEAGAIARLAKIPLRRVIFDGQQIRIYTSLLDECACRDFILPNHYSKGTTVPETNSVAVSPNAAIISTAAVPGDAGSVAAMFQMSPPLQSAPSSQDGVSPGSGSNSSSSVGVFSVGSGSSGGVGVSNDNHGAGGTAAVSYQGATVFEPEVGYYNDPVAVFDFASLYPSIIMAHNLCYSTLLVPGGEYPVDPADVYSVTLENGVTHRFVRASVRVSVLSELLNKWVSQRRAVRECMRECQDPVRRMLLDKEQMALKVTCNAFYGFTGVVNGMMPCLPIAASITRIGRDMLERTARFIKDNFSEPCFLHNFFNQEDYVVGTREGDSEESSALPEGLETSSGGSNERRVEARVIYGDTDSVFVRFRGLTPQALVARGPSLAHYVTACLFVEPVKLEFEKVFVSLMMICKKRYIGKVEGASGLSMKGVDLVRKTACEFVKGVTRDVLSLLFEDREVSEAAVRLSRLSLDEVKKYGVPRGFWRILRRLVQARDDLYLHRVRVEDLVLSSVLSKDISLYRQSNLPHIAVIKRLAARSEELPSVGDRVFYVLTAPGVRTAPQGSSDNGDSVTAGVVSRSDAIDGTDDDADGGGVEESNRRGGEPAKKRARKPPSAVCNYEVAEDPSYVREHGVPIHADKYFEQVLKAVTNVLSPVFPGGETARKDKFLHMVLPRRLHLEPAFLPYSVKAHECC
T2 sequence (P09252 whole entry): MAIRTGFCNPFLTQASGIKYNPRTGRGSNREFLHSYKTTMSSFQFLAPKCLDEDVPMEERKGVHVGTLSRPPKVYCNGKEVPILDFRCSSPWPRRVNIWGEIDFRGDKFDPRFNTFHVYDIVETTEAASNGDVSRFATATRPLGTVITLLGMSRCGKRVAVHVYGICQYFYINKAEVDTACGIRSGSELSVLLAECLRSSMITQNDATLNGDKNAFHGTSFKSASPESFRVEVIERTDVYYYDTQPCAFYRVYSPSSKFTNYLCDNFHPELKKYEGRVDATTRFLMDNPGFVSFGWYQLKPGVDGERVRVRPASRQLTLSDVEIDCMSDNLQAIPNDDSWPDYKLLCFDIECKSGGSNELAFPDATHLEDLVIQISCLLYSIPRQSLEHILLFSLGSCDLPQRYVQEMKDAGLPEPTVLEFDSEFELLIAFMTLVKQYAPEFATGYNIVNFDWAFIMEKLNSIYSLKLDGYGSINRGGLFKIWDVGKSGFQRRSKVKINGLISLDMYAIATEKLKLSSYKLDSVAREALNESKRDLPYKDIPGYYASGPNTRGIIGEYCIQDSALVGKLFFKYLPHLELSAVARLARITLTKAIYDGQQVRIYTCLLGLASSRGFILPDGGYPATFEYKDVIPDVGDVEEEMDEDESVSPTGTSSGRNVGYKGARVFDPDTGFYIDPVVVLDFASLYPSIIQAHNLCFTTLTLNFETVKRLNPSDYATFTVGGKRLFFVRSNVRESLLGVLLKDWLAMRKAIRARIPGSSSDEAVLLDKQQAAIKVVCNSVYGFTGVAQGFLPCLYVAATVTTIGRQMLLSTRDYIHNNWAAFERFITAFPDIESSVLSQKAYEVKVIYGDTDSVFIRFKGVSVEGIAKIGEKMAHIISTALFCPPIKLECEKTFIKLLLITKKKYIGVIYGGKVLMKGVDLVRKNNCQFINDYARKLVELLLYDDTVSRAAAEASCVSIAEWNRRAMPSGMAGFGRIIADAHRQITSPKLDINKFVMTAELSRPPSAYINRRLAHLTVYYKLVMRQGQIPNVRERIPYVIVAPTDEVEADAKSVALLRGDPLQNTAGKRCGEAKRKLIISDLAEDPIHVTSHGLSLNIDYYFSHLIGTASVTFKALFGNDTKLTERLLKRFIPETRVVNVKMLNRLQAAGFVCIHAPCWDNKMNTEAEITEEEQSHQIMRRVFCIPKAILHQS

With `Cn1nc(C(=O)NCc2ccc(Cl)cc2)c2c1CCN(C[C@H]1COC(=O)N1)CC2` [Compound 1], the IC50 in assay [1] is 0.802 µM; in assay [2] it was 0.26 µM; in assay [4] it was 1.96 µM. Further, the results for the EC50 in assay [3], in assay [5] and in assay [6] were 3.72 µM, 3.29 µM and 7.97 µM, respectively.
Regarding `Cn1nc(C(=O)NCc2ccc(Cl)cc2)c2c1CCN(C[C@H]1CCC(=O)N1)CC2` [Compound 2], the results for the IC50 in assay [1], in assay [2] and in assay [4] were 0.762 µM, 0.251 µM and 2.99 µM, respectively. Further, the figures for the 50% effective concentration (EC50) in assay [3], in assay [5] and in assay [6] were 8.68 µM, 3.27 µM and 5.68 µM, respectively.
As for `Cc1nnn(C)c1CN1CCc2c(C(=O)NCc3ccc(Cl)cc3)nn(C)c2CC1` [Compound 3], the results for the concentration for half-maximal inhibition (IC50) in assay [1], in assay [2] and in assay [4] were 0.805 µM, 0.373 µM and 1.44 µM, respectively. Moreover, the EC50 in assay [3] was 12.4 µM; in assay [5], 4.58 µM; in assay [6], 7.82 µM.
